In ChEMBL document CHEMBL2406981, “Novel pyrazoline amidoxime and their 1,2,4-oxadiazole analogues: synthesis and pharmacological screening” (Bioorg Med Chem Lett, 2013):
Converted amounts (≈) assume the structure as drawn.

Test system: Escherichia coli
Assay: Antimicrobial activity against Escherichia coli MTCC 724 at 100 ug/ml after 24 hrs by agar disc diffusion method
Format: functional
Conditions: MTCC 724, 24 h, read-out: DIZ

Question: For `COc1ccc(-c2nc(C3CC(c4ccccc4)=NN3c3ccccc3)no2)cc1OC` (stereo unspecified), which zone of inhibition at 100 µg/mL is on record?
Answer: 12 mm

Test system: Aspergillus niger
Assay: Antimicrobial activity against Aspergillus niger MTCC 281
Format: functional
Conditions: not given

Question: Which MIC does the source give for `COc1ccc(-c2nc(C3CC(c4ccccc4)=NN3c3ccccc3)no2)cc1OC` (stereo unspecified) here?
Answer: 10 µg/mL (≈ 23.4 µM)

Test system: Escherichia coli
Assay: Antimicrobial activity against Escherichia coli MTCC 724 at 50 ug/ml after 24 hrs by agar disc diffusion method
Format: functional
Conditions: MTCC 724, 24 h, read-out: DIZ

Question: For `COc1ccc(-c2nc(C3CC(c4ccccc4)=NN3c3ccccc3)no2)cc1OC` (stereo unspecified), which zone of inhibition at 50 µg/mL is on record?
Answer: 8 mm

Test system: Bacillus cereus
Assay: Antimicrobial activity against Bacillus cereus MTCC 8372
Format: functional
Conditions: not given

Question: With `COc1ccc(-c2nc(C3CC(c4ccccc4)=NN3c3ccccc3)no2)cc1OC` (stereo unspecified) as the compound, how does the MIC read?
Answer: 20 µg/mL (≈ 46.9 µM)

Test system: Aspergillus niger
Assay: Antimicrobial activity against Aspergillus niger MTCC 281 at 50 ug/ml after 24 hrs by agar disc diffusion method
Format: functional
Conditions: MTCC 281, 24 h, read-out: DIZ

Question: With `COc1ccc(-c2nc(C3CC(c4ccccc4)=NN3c3ccccc3)no2)cc1OC` (stereo unspecified) as the compound, how does the zone of inhibition at 50 µg/mL read?
Answer: 12 mm

Test system: Shigella flexneri
Assay: Antimicrobial activity against Shigella flexneri MTCC 1457 at 100 ug/ml after 24 hrs by agar disc diffusion method
Format: functional
Conditions: MTCC 1457, 24 h, read-out: DIZ

Question: Which zone of inhibition at 100 µg/mL does the source give for `COc1ccc(-c2nc(C3CC(c4ccccc4)=NN3c3ccccc3)no2)cc1OC` (stereo unspecified) here?
Answer: 10 mm

Test system: Aspergillus niger
Assay: Antimicrobial activity against Aspergillus niger MTCC 281 at 100 ug/ml after 24 hrs by agar disc diffusion method
Format: functional
Conditions: MTCC 281, 24 h, read-out: DIZ

Question: For `COc1ccc(-c2nc(C3CC(c4ccccc4)=NN3c3ccccc3)no2)cc1OC` (stereo unspecified), which zone of inhibition at 100 µg/mL is on record?
Answer: 18 mm

Test system: Radical scavenging activity
Assay: Antioxidant activity assessed as DPPH free radical scavenging activity at 100 ug/ml after 20 mins
Format: functional
Conditions: not given

Question: With `COc1ccc(-c2nc(C3CC(c4ccccc4)=NN3c3ccccc3)no2)cc1OC` (stereo unspecified) as the compound, how does the Activity read?
Answer: 66%

Test system: not listed separately
Assay: Antioxidant activity assessed as reducing power of ferric ion at 100 ug/ml after 20 mins
Format: functional
Set-up: scale not given: the % may be the effect or the level left
Conditions: not given

Question: Which Activity does the source give for `COc1ccc(-c2nc(C3CC(c4ccccc4)=NN3c3ccccc3)no2)cc1OC` (stereo unspecified) here?
Answer: 68%

Test system: Staphylococcus aureus
Assay: Antimicrobial activity against Staphylococcus aureus MTCC 96 at 50 ug/ml after 24 hrs by agar disc diffusion method
Format: functional
Conditions: MTCC 96, 24 h, read-out: DIZ

Question: With `COc1ccc(-c2nc(C3CC(c4ccccc4)=NN3c3ccccc3)no2)cc1OC` (stereo unspecified) as the compound, how does the zone of inhibition at 50 µg/mL read?
Answer: 8 mm

Test system: not listed separately
Assay: Antioxidant activity assessed as reducing power of ferric ion at 50 ug/ml after 20 mins
Format: functional
Set-up: scale not given: the % may be the effect or the level left
Conditions: not given

Question: With `COc1ccc(-c2nc(C3CC(c4ccccc4)=NN3c3ccccc3)no2)cc1OC` (stereo unspecified) as the compound, how does the Activity read?
Answer: 29%

Test system: Escherichia coli
Assay: Antimicrobial activity against Escherichia coli MTCC 724
Format: functional
Conditions: not given

Question: Which MIC does the source give for `COc1ccc(-c2nc(C3CC(c4ccccc4)=NN3c3ccccc3)no2)cc1OC` (stereo unspecified) here?
Answer: 20 µg/mL (≈ 46.9 µM)

Test system: Radical scavenging activity
Assay: Antioxidant activity assessed as DPPH free radical scavenging activity at 50 ug/ml after 20 mins
Format: functional
Conditions: not given

Question: Which Activity does the source give for `COc1ccc(-c2nc(C3CC(c4ccccc4)=NN3c3ccccc3)no2)cc1OC` (stereo unspecified) here?
Answer: 56%

Test system: not listed separately
Assay: Antiinflammatory activity against heat-induced albumin denaturation at […] preincubated for 15 mins before heat induction by UV-vis spectrophotometer analysis
Format: functional
Conditions: not given

Question: Which inhibition does the source give for `COc1ccc(-c2nc(C3CC(c4ccccc4)=NN3c3ccccc3)no2)cc1OC` (stereo unspecified) here?
Answer: 27.1%

Test system: Aspergillus flavus
Assay: Antimicrobial activity against Aspergillus flavus MTCC 873 at 50 ug/ml after 24 hrs by agar disc diffusion method
Format: functional
Conditions: MTCC 873, 24 h, read-out: DIZ

Question: For `COc1ccc(-c2nc(C3CC(c4ccccc4)=NN3c3ccccc3)no2)cc1OC` (stereo unspecified), which zone of inhibition at 50 µg/mL is on record?
Answer: 10 mm

Test system: not listed separately
Assay: Antioxidant activity assessed as reducing power of ferric ion at 10 ug/ml after 20 mins
Format: functional
Set-up: scale not given: the % may be the effect or the level left
Conditions: not given

Question: Which Activity does the source give for `COc1ccc(-c2nc(C3CC(c4ccccc4)=NN3c3ccccc3)no2)cc1OC` (stereo unspecified) here?
Answer: 12%

Test system: Bacillus cereus
Assay: Antimicrobial activity against Bacillus cereus MTCC 8372 at 50 ug/ml after 24 hrs by agar disc diffusion method
Format: functional
Conditions: MTCC 8372, 24 h, read-out: DIZ

Question: Which zone of inhibition at 50 µg/mL does the source give for `COc1ccc(-c2nc(C3CC(c4ccccc4)=NN3c3ccccc3)no2)cc1OC` (stereo unspecified) here?
Answer: 8 mm

Test system: not listed separately
Assay: Antioxidant activity against ferric chloride-induced lipid peroxidation using egg lecithin at 50 ug/ml after 1 hr
Format: functional
Conditions: not given

Question: With `COc1ccc(-c2nc(C3CC(c4ccccc4)=NN3c3ccccc3)no2)cc1OC` (stereo unspecified) as the compound, how does the inhibition read?
Answer: 52%

Test system: Shigella flexneri
Assay: Antimicrobial activity against Shigella flexneri MTCC 1457
Format: functional
Conditions: not given

Question: With `COc1ccc(-c2nc(C3CC(c4ccccc4)=NN3c3ccccc3)no2)cc1OC` (stereo unspecified) as the compound, how does the MIC read?
Answer: 25 µg/mL (≈ 58.6 µM)

Test system: Aspergillus flavus
Assay: Antimicrobial activity against Aspergillus flavus MTCC 873 at 100 ug/ml after 24 hrs by agar disc diffusion method
Format: functional
Conditions: MTCC 873, 24 h, read-out: DIZ

Question: For `COc1ccc(-c2nc(C3CC(c4ccccc4)=NN3c3ccccc3)no2)cc1OC` (stereo unspecified), which zone of inhibition at 100 µg/mL is on record?
Answer: 14 mm

Test system: Klebsiella pneumoniae
Assay: Antimicrobial activity against Klebsiella pneumoniae MTCC 3384
Format: functional
Conditions: not given

Question: Which MIC does the source give for `COc1ccc(-c2nc(C3CC(c4ccccc4)=NN3c3ccccc3)no2)cc1OC` (stereo unspecified) here?
Answer: 20 µg/mL (≈ 46.9 µM)

Test system: Radical scavenging activity
Assay: Antioxidant activity assessed as DPPH free radical scavenging activity at 10 ug/ml after 20 mins
Format: functional
Conditions: not given

Question: With `COc1ccc(-c2nc(C3CC(c4ccccc4)=NN3c3ccccc3)no2)cc1OC` (stereo unspecified) as the compound, how does the Activity read?
Answer: 26%

Test system: not listed separately
Assay: Antioxidant activity against ferric chloride-induced lipid peroxidation using egg lecithin at 10 ug/ml after 1 hr
Format: functional
Conditions: not given

Question: Which inhibition does the source give for `COc1ccc(-c2nc(C3CC(c4ccccc4)=NN3c3ccccc3)no2)cc1OC` (stereo unspecified) here?
Answer: 14%

Test system: Staphylococcus aureus
Assay: Antimicrobial activity against Staphylococcus aureus MTCC 96
Format: functional
Conditions: not given

Question: With `COc1ccc(-c2nc(C3CC(c4ccccc4)=NN3c3ccccc3)no2)cc1OC` (stereo unspecified) as the compound, how does the MIC read?
Answer: 20 µg/mL (≈ 46.9 µM)

Test system: Shigella flexneri
Assay: Antimicrobial activity against Shigella flexneri MTCC 1457 at 50 ug/ml after 24 hrs by agar disc diffusion method
Format: functional
Conditions: MTCC 1457, 24 h, read-out: DIZ

Question: With `COc1ccc(-c2nc(C3CC(c4ccccc4)=NN3c3ccccc3)no2)cc1OC` (stereo unspecified) as the compound, how does the zone of inhibition at 50 µg/mL read?
Answer: 7 mm

Test system: Aspergillus flavus
Assay: Antimicrobial activity against Aspergillus flavus MTCC 873
Format: functional
Conditions: not given

Question: For `COc1ccc(-c2nc(C3CC(c4ccccc4)=NN3c3ccccc3)no2)cc1OC` (stereo unspecified), which MIC is on record?
Answer: 10 µg/mL (≈ 23.4 µM)

Test system: Klebsiella pneumoniae
Assay: Antimicrobial activity against Klebsiella pneumoniae MTCC 3384 at 50 ug/ml after 24 hrs by agar disc diffusion method
Format: functional
Conditions: MTCC 3384, 24 h, read-out: DIZ

Question: For `COc1ccc(-c2nc(C3CC(c4ccccc4)=NN3c3ccccc3)no2)cc1OC` (stereo unspecified), which zone of inhibition at 50 µg/mL is on record?
Answer: 8 mm

Test system: Staphylococcus aureus
Assay: Antimicrobial activity against Staphylococcus aureus MTCC 96 at 100 ug/ml after 24 hrs by agar disc diffusion method
Format: functional
Conditions: MTCC 96, 24 h, read-out: DIZ

Question: Which zone of inhibition at 100 µg/mL does the source give for `COc1ccc(-c2nc(C3CC(c4ccccc4)=NN3c3ccccc3)no2)cc1OC` (stereo unspecified) here?
Answer: 12 mm

Test system: Bacillus cereus
Assay: Antimicrobial activity against Bacillus cereus MTCC 8372 at 100 ug/ml after 24 hrs by agar disc diffusion method
Format: functional
Conditions: MTCC 8372, 24 h, read-out: DIZ

Question: For `COc1ccc(-c2nc(C3CC(c4ccccc4)=NN3c3ccccc3)no2)cc1OC` (stereo unspecified), which zone of inhibition at 100 µg/mL is on record?
Answer: 14 mm

Test system: not listed separately
Assay: Antioxidant activity against ferric chloride-induced lipid peroxidation using egg lecithin at 100 ug/ml after 1 hr
Format: functional
Conditions: not given

Question: With `COc1ccc(-c2nc(C3CC(c4ccccc4)=NN3c3ccccc3)no2)cc1OC` (stereo unspecified) as the compound, how does the inhibition read?
Answer: 71%

Test system: Klebsiella pneumoniae
Assay: Antimicrobial activity against Klebsiella pneumoniae MTCC 3384 at 100 ug/ml after 24 hrs by agar disc diffusion method
Format: functional
Conditions: MTCC 3384, 24 h, read-out: DIZ

Question: With `COc1ccc(-c2nc(C3CC(c4ccccc4)=NN3c3ccccc3)no2)cc1OC` (stereo unspecified) as the compound, how does the zone of inhibition at 100 µg/mL read?
Answer: 14 mm
